Assay results from patent publication US20200255492A1, “LEPTIN PEPTIDES AND THEIR USE FOR TREATING NEUROLOGICAL DISORDERS” (UNIVERSITY OF DUNDEE, priority 2017, published 2020).

Legend:
[1] = test system: tau in hippocampal neurons; test: Immunocytochemistry of endogenous tau and tau/PSD-95 co-localization; format: cell-based, Sprague-Dawley rats; details: Aβ1-42 1 μM plus leptin/fragment 10 nM or SB216763 100 nM
Description: Hippocampal cultures were prepared as previously (Moult et al, 2010). Neonatal Sprague-Dawley rats (1-3 d old) were […] killed by cervical dislocation in accordance with the UK Animals (Scientific Procedures Act) 1986 legislation. Hippocampi were removed, and after washing in HEPES-buffered saline comprising (mM) 135 NaCl; 5 KCl; 1 CaCl2; 1 MgCl2; 10 HEPES; and 25 D-glucose at […], were treated with papain (1.5 mg ml21; Sigma-Aldrich) for 20 min at 37° C. Dissociated cells were plated onto sterile dishes (35 mm diameter; Greiner Bio-One, Kremsmun-ster, Austria) treated with poly-D-lysine (20 μg ml^−1; 1-2 h). Cultures were maintained in serum replacement medium (SR2; Sigma-Aldrich) in a humidified atmosphere of 5% CO2 and […] at 37° C. for up to 2 wk.
Immunocytochemistry was conducted on primary hippocampal cultures (7-14 DIV). Prior to labelling with antibodies, neurons were washed with HBS containing glycine (0.01 mM) and incubated with agents for 1 h at room temperature. Cultures were fixed with 4% paraformaldehyde for 5 min, then permeabilized with 0.1% Triton X-100 for 5 min. To label endogenous tau, neurons were incubated with a rabbit anti-tau (Ab-217; Genscript) primary antibody (1:200 dilution) at room temperature for 30 min, followed by incubation with an Alexa Fluor555 donkey anti-rabbit (1:250, Invitrogen) secondary antibody for an additional 30 min duration. To assess the % co-localisation of tau at synapses, neurons were dual labelled with an antibody against the synaptic marker, PSD-95 (mouse anti-PSD-95; 1:500, Thermo Fisher) followed by application of an Alexa Fluor488 goat anti-mouse secondary antibody (1:500, Invitrogen).
A Zeiss LSM510 confocal microscope was used for image acquisition and analysis. Images were obtained using a 10-s scan speed in single tracking mode or multi-tracking mode for dual labelling experiments. The intensity of immunostaining was measured off-line using Lasersharp software (Zeiss Lasersharp), whereby analysis lines of 50 μm length were drawn along randomly selected dendritic regions. All data were obtained from at least three different cultures from different animals. Imaging conditions including illumination intensity and photomultiplier gains were kept constant between treatments for each experiment. In addition, data were normalised relative to the mean fluorescence intensity obtained from control neurons. For synaptic co-localisation experiments, tau and PSD-95 positive immunostaining were compared. The number of tau-positive sites that co-localized with PSD-95 positive sites were counted and expressed as a percentage of total positive sites (peaks of intensity).

[2] = test system: GluA1 surface expression in cultured hippocampal neurons; test: Surface labelling of AMPA receptor subunit GluA1 (immunocytochemistry); format: cell-based, Sprague Dawley rats; details: for GluA1 surface expression, hexamer study: 10 nM, 15 min
[3] = test system: differentiated human neural cells (SH-SY5Y); test: LDH release assay (membrane leakage, cell death); format: cell-based; details: 10 μM Aβ1-42; for reduction of LDH release compared with Aβ1-42 alone, hexamer study: 10 nM, n=11
Description: (§1) The human neuroblastoma cell line, SH-SY5Y (ECACC, UK) was maintained in Dulbecco's Modified Eagle Medium supplemented with glucose ([…]) and 10% (v/v) cosmic calf serum (Fisher Scientific, UK) at 37° C. in a humidified atmosphere of 5% CO2, 95% air and allowed to reach 70-80% confluence before seeding. Cells (passage 10-18) were plated at 10 000 cells per well in 96 well tissue culture plates (Nunc, VWR, UK) and at a density of 2×10^5 cells in 35 mm dishes for protein extraction. To induce differentiation, cells were cultured in DMEM supplemented with glucose ([…]), 1% (v/v) cosmic calf serum and 10 μM retinoic acid for 5 days. Thereafter they were incubated in DMEM supplemented with glucose ([…]), serum replacement 2 (2%; Sigma, UK) and 18 μM 5-fluorodeoxyuridine to inhibit proliferation of undifferentiated cells. The 50% of the medium was changed every 2-3 days and pharmacological treatment was carried out 7 days after switching to this medium. Reagents used were (from Sigma UK unless stated) 0.1-10 nM human leptin and leptin (116-130); 0.1-10 nM leptin (22-56; Bachem; Switzerland); 10 nM leptin (116-121) leptin (117-122), leptin (124-129) or leptin (125-130; all Severn Biotech, UK); 5 μM copper chloride; […], 5 μM WP1066 or 50 nM wortmannin. All treatments were added to the culture at the same time and survival assays were carried out after 96 h treatment. Protein samples for signaling ELISA were extracted 3 h after exposure to the relevant reagents and for biomarker expression after 72 hours.
(§2) The concentration of lactate dehydrogenase (LDH) in the culture medium or the mitochondrial activity within cells was used to monitor the level of cell death, as previously (Oldreive and Doherty 2010). In certain experiments, a Crystal violet assay was used to assess total cell number. Cells were fixed in neutral buffered formalin and washed 3 times in PBS prior to staining with 0.01% crystal violet acetate for 5 min. Plates were washed 5-10 times in dH2O and cells solubilised in 100 μl dimethyl sulfoxide (DMSO) before reading the absorbance on a Biohit BP100 plate reader. For all assays, data is expressed as percentage relative to control, untreated wells to normalize for differences in plating density between individual experiments.
To determine whether leptin (116-130) has neuroprotective actions, the effects of leptin (116-130) on the viability of differentiated human neural cells (SH-SY5Y) was examined after exposure to either 5 μM CuCl2 or 10 μM Aβ1-42. Cells were treated with the toxin alone or with a range of concentrations (10-0.1 nM) of leptin or leptin (116-130). […] Thus like leptin, treatment with leptin (116-130) reduces neuronal death in response to AD-linked toxins in vitro.

acute hippocampal slices = test: HFS-induced LTP with leptin hexamers; format: cell-based, Sprague Dawley rats; details: 10 nM for 50 min prior to HFS; control LTP 117±10.8% / 125±4.9%
Description: Parasagittal hippocampal slices (300 μm) were prepared from either P13-21 or 12-24-week-old male Sprague Dawley rats as previously (Moult et al. 2010). Brains were rapidly removed and placed in ice-cold artificial CSF (aCSF; bubbled with 95% O2 and 5% CO2) containing the following (in mm): 124 NaCl, 3 KCl, 26 NaHCO3, 1.25 NaH2PO4, 2 CaCl2, 1 MgSO4, and 10 d-glucose. Once prepared, parasagittal slices were allowed to recover at room temperature in oxygenated aCSF for 1 h before use. Slices were transferred to a submerged chamber maintained at room temperature and perfused with artificial cerebrospinal fluid at 2 ml min^−1. Standard extracellular recordings were used to monitor evoked field excitatory postsynaptic potentials (fEPSP) from stratum radiatum. The Schaffer collateral-commissural pathway was stimulated (constant voltage; 0.1 ms) at 0.033 Hz, using a stimulus intensity that evoked a peak amplitude ˜50% of the maximum. Synaptic potentials were low pass filtered at 2 kHz and digitally sampled at 10 kHz. The fEPSP slope was measured and expressed relative to baseline. Synaptic records are the average of 4 consecutive responses and stimulus artefacts are blanked for clarity. Recordings were made using an Axopatch 200B amplifier and analyzed using LTP v2.4 software. In synaptic plasticity studies, the degree of potentiation was calculated 30-35 min after HFS and expressed as a percentage of baseline±standard error of mean (SEM).
To determine if the leptin hexamers influence the magnitude of activity-dependent synaptic plasticity, standard extracellular recording techniques were used to assess the effects of leptin (116-121, 117-122, 118-123, 120-125, 124-129 and 125-130) on the magnitude of LTP induced by high frequency stimulation (100 Hz, 1 s) in acute hippocampal slices. […] In parallel studies, application of leptin (118-123; 158±3.8%; n=7; p<0.05; FIG. 8) or leptin (120-125; to 163±8.8% of baseline; n=5; p<0.05) also facilitated LTP, compared to control LTP (FIG. 8).

[4] = test system: differentiated SH-SY5Y human neuronal cells; test: MTT assay of mitochondrial activity (cell viability); format: cell-based; details: 10 nM; n=11
Description: as §1, §2
To confirm the findings of the LDH assay, cells were treated with Aβ1-42 alone or with a 10 nM of leptin, leptin (116-130) or the listed hexamers, and mitochondrial activity, as a measure of cell viability, determined by MTT assay. A significant increase in mitochondrial activity was detected following treatment with either leptin or leptin (116-130; both 10 nM). […] Thus for Aβ1-42-treated cells, 10 nM leptin and 10 nM leptin (116-130) increased mitochondrial activity by 32.6±5.2% and 40.9+5.8% respectively compared with Aβ1-42 alone (n=11; P<0.001; FIG. 11B); an effect that was mirrored by 10 nM leptin (116-121) and leptin (117-122); 43.61±3.9% and 40.5±3.7*% (n=11; P<0.001; FIG. 11B), but not by 10 nM leptin (124-129) or leptin (125-130) (n=11; P>0.5; FIG. 11B). This reinforces the findings from the LDH assay that similar to either leptin or leptin (116-130), treatment with leptin (116-121) or leptin (117-122) reduces neuronal death in response to AD-linked toxins in vitro.

[5] = test system: phosphorylated tau (p-tau); test: ELISA of phosphorylated tau relative to α-tubulin; format: cell-based, human; details: 10 nM; n=5
Description: as §1
Protein from cultures was extracted into 500 μl Tris-buffered saline containing protease inhibitor cocktail, and a Bradford assay used to determine protein concentration. Samples were diluted to give equal loading onto ELISA plates. Commercially available ELISA kits were used in accordance with the manufacturer's instructions to determine the ratio of pan-STAT3 to phospho-STAT3 (Sigma, UK) and pan-Akt to phospho-Akt (Sigma, UK) and the levels of alpha-tubulin and phosphorylated tau (Sigma, UK). Each protein sample was run in duplicate using samples derived from at least 5 biological repeats.
Hyper-phosphorylation of tau is the underpinning mechanism of the development of neurofibrillary tangles—one of the key pathological feature of AD. Human SH-SY5Y neuronal cells were exposed to Aβ1-42 alone or in combination with 10 nM leptin, leptin (116-130), leptin (116-121), leptin (117-122), leptin (124-129) or leptin (125-130). Protein was extracted for ELISA assay and the ratio of p-tau to the house-keeping protein α-tubulin determined (FIG. 11C). […] Thus for Aβ1-42-treated cells, 10 nM leptin and 10 nM leptin (116-130) reduced p-tau expression by 56.2±8.0% and 58.9+4.6% respectively compared with Aβ1-42 alone (n=5; P<0.001; FIG. 11C); an effect that was mirrored by 10 nM leptin (116-121) and leptin (117-122); 58.1±4.0% and 45.48±6.1% (n=5; P<0.001 and P<0.01 respectively; FIG. 11C), but not by 10 nM leptin (124-129) or leptin (125-130)(n=5; P>0.5; FIG. 11C).

Row | Molecule | GluA1 surface expression, hexamer study [2] | magnitude of LTP after HFS (100 Hz, 1 s) (acute hippocampal slices) | further results
1 | Cn1cc(C2=C(c3ccc(Cl)cc3Cl)C(=O)NC2=O)c2ccccc21 [SB216763, reference compound] | – | – | % co-localization of tau and PSD-95 in Aβ1-42-treated neurons [1]: decreased % tau/PSD-95 co-localization; relative tau intensity in Aβ1-42-treated neurons [1]: mirrors the effects of leptin
2 | bisperoxovanadium [bpV, reference compound] | – | – | GluA1 surface expression, agent alone (PTEN study) ([2]; bpV 50 nM, 30 min): 148±8 % of control
3 | leptin (122-128): leptin fragment amino acids 122-128 (ASGLETL; UniProt P41159 122-128, looked up, fragment) | failed to significantly alter the surface expression of GluA1 | – | –
4 | GLQKPE (listed as Mus musculus) [leptin (124-129)] | 89±6 % of control | 137±5.6 % of baseline | reduction of LDH release compared with Aβ1-42 alone, hexamer study [3]: did not; increase in mitochondrial activity compared with Aβ1-42 alone [4]: did not; reduction of p-tau expression compared with Aβ1-42 alone [5]: did not
5 | leptin (121-126): leptin fragment amino acids 121-126 (WASGLE; UniProt P41159 121-126, looked up, fragment) | failed to significantly alter the surface expression of GluA1 | – | –
6 | SLPQTS (listed as Mus musculus) [leptin (118-123)] | increased the surface expression of GluA1 | 158±3.8 % of baseline | –
7 | C[C@H](NC(=O)/C(C#N)=C/c1cccc(Br)n1)c1ccccc1 [WP1066, reference compound] | – | – | effect of inhibitor on leptin (116-130)-mediated neuroprotection (LDH) ([3]; WP1066 5 μM, wortmannin 50 nM): prevented leptin (116-130)-mediated neuroprotection
8 | PQTSGL (listed as Mus musculus) [leptin (120-125)] | increased the surface expression of GluA1 | 163±8.8 % of baseline | –
9 | LQKPES (SCHLPWASGL; listed as Homo sapiens) [leptin (125-130)] | 98±5 % of control | 137±2.4 % of baseline | reduction of LDH release compared with Aβ1-42 alone, hexamer study [3]: did not; increase in mitochondrial activity compared with Aβ1-42 alone [4]: did not; reduction of p-tau expression compared with Aβ1-42 alone [5]: did not
